{"source": "patent US20240325409A1", "about": "“Fused Heterotetracyclic Antiviral Agents” (Enanta Pharmaceuticals, Inc., priority 2023, published 2024)"}
{"tested_on": "HBV", "assay": "HBV infection of HepG2-NTCP cells, HBeAg AlphaLISA readout", "format": "cell-based", "details": "Hepatitis B virus, 192 h, 2000 GE/cell, HBeAg in supernatant at day 8 post infection, 50% reduction relative to DMSO controls, read-out: Cellular EC50", "experimental": "(§1) HepG2-NTCP A3 cells were maintained in DMEM media supplemented with GlutaMAX™, 10% fetal bovine serum, 1% penicillin/streptomycin, and 5 ug/mL puromycin at 37° C. in a humidified atmosphere with 5% CO2 in a collagen-coated tissue culture flask.\nHepG2-NTCP cells were seeded in 384 well plate containing 16,000 cells/well two days prior to the infection. On the day of infection, compounds were 3-fold serially diluted in DMSO and pre-incubated with HepG2-NTCP cells for two hours before purified HBV addition. HBV infection was carried out at 2000 GE/cell with 4% PEG, and the final concentration of DMSO is 0.5%. On day one post infection, HBV-containing media was aspirated, cells were washed once with PBS and then maintained in 2.5% DMSO containing media for the remainder of the assay.\nSupernatants from infected HepG2-NTCP cells were collected at day 8 post infection, and the amount of viral antigen HBeAg was measured by HBeAg AlphaLISA detection kit (PerkinElmer) following the manufacturer's recommended protocol. Irrespective of readout, compound concentrations that reduce viral product accumulation in supernatants by 50% relative to DMSO controls (EC50) are reported. EC50 ranges are as follows: A<0.1 µM; B 0.1-1 µM; C>1 µM.", "units": {"EC50": "nM"}}
{"smiles": "CN1[C@H](C2CCC2)CN(c2ccccc2)c2cc3c(cc2S1(=O)=O)-c1cc(C(=O)O)ccc1CO3", "note": "[Example 1, (R)-10-cyclobutyl-11-methyl-8-phenyl-8,9,10,11-tetrahydro-5H-benzo[3,4]chromeno[7,6-f][1,2,5]thiadiazepine-2-carboxylic acid 12,12-dioxide]", "EC50": "100 to 1000"}
{"smiles": "CCCC[C@@H]1CN(c2ccccc2)c2cc3c(cc2S(=O)(=O)N1C)-c1cc(C(=O)O)ccc1OCCO3", "note": "[Example 35, (R)-12-butyl-13-methyl-10-phenyl-6,7,10,11,12,13-hexahydrobenzo[7′,8′][1,4]dioxocino[6′,5′:4,5]benzo[1,2-f][1,2,5]thiadiazepine-2-carboxylic acid 14,14-dioxide]", "EC50": "100 to 1000"}
{"smiles": "CN1[C@H](C2CCC2)CN(c2ccccc2)c2cc3c(cc2S1(=O)=O)-c1sc(C(=O)O)cc1CO3", "note": "[Example 36, (R)-9-cyclobutyl-10-methyl-7-phenyl-7,8,9,10-tetrahydro-4H-thieno[3′,2′:3,4]chromeno[7,6-f][1,2,5]thiadiazepine-2-carboxylic acid 11,11-dioxide]", "EC50": "< 100"}
{"smiles": "CCCN1C[C@@H](CC(C)C)N(C)S(=O)(=O)c2cc3c(cc21)OCc1c-3cc(C(=O)O)c(F)c1F", "note": "[Example 37]", "EC50": "< 100"}
{"smiles": "CC(C)C[C@@H]1CN(C2CC3(CCC3)C2)c2cc3c(cc2S(=O)(=O)N1C)-c1cc(C(=O)O)c(F)c(F)c1CO3", "note": "[Example 38]", "EC50": "< 100"}
{"smiles": "CC(C)C[C@@H]1CN(C2CCC2)c2cc3c(cc2S(=O)(=O)N1C)-c1cc(C(=O)O)c(F)c(F)c1CO3", "note": "[Example 39]", "EC50": "100 to 1000"}
{"smiles": "COC(C)(C)CN1C[C@@H](CC(C)C)N(C)S(=O)(=O)c2cc3c(cc21)OCc1c-3cc(C(=O)O)c(F)c1F", "note": "[Example 40]", "EC50": "100 to 1000"}
{"tested_on": "HDV", "assay": "HDV infection of HepG2-NTCP cells, viral RNA by RT-qPCR", "format": "cell-based", "details": "288 h, 800 GE/cell, viral RNA at day 12 post infection, 50% reduction relative to DMSO controls, read-out: Cellular EC50", "experimental": "as §1\nHDV virus collected from the supernatants of HuH7-END cells was purified in the presence of 6% polyethylene glycol (PEG). Viral titer was then quantified by RT-qPCR using HDV specific primers against a reference standard. For HDV infection, HepG2-NTCP cells were seeded in 96-well plates at 60,000 cells/well. On the day of infection, compounds were 4-fold serially diluted in DMSO and pre-incubated with HepG2-NTCP cells for two hours before infecting with 800 GE/cell of HDV in 4% PEG. On day one post infection, HDV-containing media was aspirated, cells were washed once with PBS and then maintained in 2.5% DMSO containing media for the remainder of the assay. Viral RNA was isolated using RNeasy kits (Qiagen) at day 12 post infection and reverse transcribed into cDNA using High-Capacity RNA-to-cDNA Kit (Thermo Fisher). Relative HDV gene expression was quantified by RT-qPCR after normalization to expression of a housekeeping gene. Irrespective of readout, compound concentrations that reduce viral RNA by 50% relative to DMSO controls (EC50) are reported. EC50 ranges are as follows: A<0.1 µM; B 0.1-1 µM; C>1 µM.", "units": {"EC50": "nM"}}
{"smiles": "CN1[C@H](C2CCC2)CN(c2ccccc2)c2cc3c(cc2S1(=O)=O)-c1cc(C(=O)O)ccc1CO3", "note": "[Example 1, (R)-10-cyclobutyl-11-methyl-8-phenyl-8,9,10,11-tetrahydro-5H-benzo[3,4]chromeno[7,6-f][1,2,5]thiadiazepine-2-carboxylic acid 12,12-dioxide]", "EC50": "< 100"}
